“And” between values parts separate entries of the source, which are not always exact repeats. Equal entries are not always repeated.
Target: T1, HsAsnRS (Homo sapiens, UniProt O43776)
T1 construct: HsAsnRS (residues M1–P548) and CDHsAsnRS (residues A98–P548); His6 (N, cleaved yes); made in house; host or cells: E. coli BL21 (DE3), pET11a
T1 sequence (O43776 1-548): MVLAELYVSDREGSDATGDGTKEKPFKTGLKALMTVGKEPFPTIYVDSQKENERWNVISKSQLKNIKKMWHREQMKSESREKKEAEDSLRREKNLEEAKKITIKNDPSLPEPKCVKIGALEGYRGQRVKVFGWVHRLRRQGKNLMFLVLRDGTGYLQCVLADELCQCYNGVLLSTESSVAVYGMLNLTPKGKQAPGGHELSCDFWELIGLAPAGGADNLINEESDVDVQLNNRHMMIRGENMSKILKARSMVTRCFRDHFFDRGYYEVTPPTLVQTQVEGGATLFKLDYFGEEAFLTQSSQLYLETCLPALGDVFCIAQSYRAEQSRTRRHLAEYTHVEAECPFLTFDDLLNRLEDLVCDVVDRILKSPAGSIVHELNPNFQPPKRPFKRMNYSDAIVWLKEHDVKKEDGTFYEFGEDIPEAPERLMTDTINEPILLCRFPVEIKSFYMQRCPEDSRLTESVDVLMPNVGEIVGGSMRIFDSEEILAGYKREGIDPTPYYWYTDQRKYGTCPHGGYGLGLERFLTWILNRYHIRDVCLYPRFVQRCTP
Experiment: LC-MS of Asn-OSM-S-106 adduct generated by recombinant HsAsnRS
Format: biochemical
Protocol: The reaction buffer consists of 100 mM HEPES pH 7.5 (KOH), 160 mM KCl, 3.5 mM MgCl2, 1 mM DTT. The mixture was incubated at 37 °C for 1 h. After that, an equal volume of 8 M urea was added to the mixture. Finally, trifluoroacetic acid was added to a final concentration of 1%. The sample was centrifuged at 15,000 × g for 10 min and the supernatant was used for LCMS analysis. […] Quantification of the conjugates was done using Skyline (version 21.1.0.278).
Samples were analyzed by reversed-phase ultra-high-performance liquid chromatography (UHPLC) coupled to tandem mass spectrometry (MS/MS) employing a Vanquish UHPLC linked to an Orbitrap Fusion Lumos mass spectrometer (Thermo Fisher Scientific, San Jose, CA, USA) operated in positive ion mode. Solvent A was 0.1% formic acid/10 mM ammonium acetate in water and solvent B was 0.1% formic acid/10 mM ammonium acetate in acetonitrile. […] Finally, the percentage of solvent B was decreased to 0% in 0.1 min and maintained for 3.9 min.
MS experiments were performed using a Heated Electrospray Ionization (HESI) source. The spray voltage, flow rate of sheath, auxiliary and sweep gases were 3.5 kV, 20, 6, and 1 ‘arbitrary’ unit(s), respectively. The ion transfer tube and vaporizer temperatures were maintained at 350 °C and 400 °C, respectively, and the S-Lens RF level was set at 50%. […]

SMILES: Nc1ncnc2cc(-c3cccc(S(N)(=O)=O)c3)sc12 [OSM-S-106]
- MS peak area (Asn-OSM-S-106 adduct) (1 μM HsAsnRS, 10 μM OSM-S-106, 1 h, 37 °C, individual experiments): 3564405 and 3396334 and 2555457 and 1397007
- Asn-OSM-S-106 signal intensity with HsAsnRS, lower than with PfAsnRS (10 μM OSM-S-106, ATP, Asn, E. coli tRNA): 18 fold
